Laboratory results as given in patent publication US8106063B2, “Pyrimidyl sulphone amide derivatives as chemokine receptor modulators” (AstraZeneca AB, priority 2002, dated 2012).

Molecular target: T1, hrCXCR2 (Homo sapiens, UniProt P25025)
T1 construct: expressed in transfected cells; host or cells: HEK 293 cells (ECACC No. 85120602), membranes of the highest expressing clone
T1 sequence (P25025 1-360): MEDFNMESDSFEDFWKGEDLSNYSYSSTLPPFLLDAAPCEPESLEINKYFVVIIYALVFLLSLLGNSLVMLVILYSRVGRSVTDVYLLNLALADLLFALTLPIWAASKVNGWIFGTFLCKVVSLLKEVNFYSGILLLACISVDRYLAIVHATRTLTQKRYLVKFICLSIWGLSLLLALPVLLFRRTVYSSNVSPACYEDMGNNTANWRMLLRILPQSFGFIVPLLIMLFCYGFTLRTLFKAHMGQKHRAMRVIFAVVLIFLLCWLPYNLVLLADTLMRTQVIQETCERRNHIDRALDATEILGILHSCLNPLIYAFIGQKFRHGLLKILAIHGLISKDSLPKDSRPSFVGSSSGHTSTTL
Assay: Ligand binding assay ([125I]IL-8 binding to hrCXCR2 membranes)
Conditions: ~50 pM [125I]IL-8, membranes of HEK 293 cells expressing hrCXCR2, 1.5 hours at room temperature

IC50: 158 nM
SMILES: Cc1cccc(CSc2nc(NC(C)(C)CO)cc(NS(C)(=O)=O)n2)c1F [Example 116, N-{2-[(2-Fluoro-3-methylbenzyl)thio]-6-[(2-hydroxy-1,1-dimethylethyl)amino]-pyrimidin-4-yl}methanesulfonamide]
